For the data set, the system named is mouse melanoma B-16 cells. As to the kind of experiment: Inhibitory effect on melanin synthesis. It counts as cell-based. The protocol: In order to confirm the inhibition effect of the compounds prepared in Examples 1 to 31 and hydroquinone on melanin biosynthesis, the experiment was performed with the procedure described in the literature (Lotan R., Lotan D. Cancer Res., 40, pp. 3345-3350, 1980).
[…] The medium was cultured for 3 days and the cultured cells were separated from the medium by treating with trypsin. The separated cells were centrifuged and the melanin was extracted therefrom. The extract was treated with 1 ml of sodium hydroxide solution (1N) and boiled for 10 mins to resolve the melanin. Optical density (OD) value was measured 3 times at 475 nm by a spectrophotometer and the amount of melanin was expressed by absorbance(OD)/1×10^6 cells. The inhibitory effect of melanin (%) was calculated from the melanin synthesis as compared with the control group.

[1] abbreviates: Mus musculus, B16, 72 h, concentration 5 ug/ml, B-16 cells cultured 3 days, vs control group.
The mark [2] stands for this setting: Mus musculus, B16, 72 h, concentration 20 ug/ml, B-16 cells cultured 3 days, vs control group.
[3] abbreviates: concentration 5 ug/ml, B-16 cells cultured 3 days, vs control group.
Where [4] appears, read: concentration 20 ug/ml, B-16 cells cultured 3 days, vs control group.
Setting [5] is: mouse B-16 melanoma cells, statement in words.

With `CCCC(=O)O[C@@H]1CCCC[C@H]1OC(=O)CCC` (relative stereo) [Example 1, butyric acid 2-butyryloxy-trans-cyclohexyl ester], testing at 5 µg/mL under setting [1] gave an inhibition of 30%. This compound gave an inhibition at 20 µg/mL under setting [2] of 55%.

As for `CCCCC(=O)O[C@@H]1CCCC[C@H]1OC(=O)CCCC` (relative stereo) [Example 2, pentanoic acid 2-pentanoyloxy-trans-cyclohexyl ester], testing at 5 µg/mL under setting [1] gave an inhibition of 45%. In addition, at 20 µg/mL the inhibition under setting [2] was 78%.

As for `CC(C)=CC(=O)O[C@@H]1CCCC[C@H]1OC(=O)C=C(C)C` (relative stereo) [Example 3, 3-methyl-2-butenoic acid 2-(3-methyl-2-butenoyloxy)-trans-cyclohexyl ester], the inhibition at 5 µg/mL under setting [1] worked out at 39%. Further, the inhibition at 20 µg/mL under setting [2] was found to be 72%.

In turn, `CCCCCC(=O)O[C@@H]1CCCC[C@H]1OC(=O)CCCCC` (relative stereo) [Example 4, hexanoic acid 2-hexanoyloxy-trans-cyclohexyl ester] returned an inhibition at 5 µg/mL under setting [1] of 41%. Under setting [2], this compound displayed an inhibition at 20 µg/mL of 71%.

Take `CCCCCCC(=O)O[C@@H]1CCCC[C@H]1OC(=O)CCCCCC` (relative stereo) [Example 5, heptanoic acid 2-heptanoyloxy-trans-cyclohexyl ester]: testing at 5 µg/mL under setting [1] gave an inhibition of 35%. This compound came in with an inhibition at 20 µg/mL under setting [2] of 56%.

In turn, `CCCCCCCC(=O)O[C@@H]1CCCC[C@H]1OC(=O)CCCCCCC` (relative stereo) [Example 6, octanoic acid 2-octanoyloxy-trans-cyclohexyl ester] yielded an inhibition at 5 µg/mL under setting [1] of 30%. The compound further had an inhibition at 20 µg/mL under setting [2] of 51%.

As for `CCCCC(CC)C(=O)O[C@@H]1CCCC[C@H]1OC(=O)C(CC)CCCC` (relative stereo) [Example 7, 2-ethyl-hexanoic acid 2-(2-ethyl-hexanoyloxy)-trans-cyclohexyl ester], under setting [1], at 5 µg/mL the inhibition was 42%. This compound also registered an inhibition at 20 µg/mL under setting [2] of 69%.

As for `CCCCCCCCC(=O)O[C@@H]1CCCC[C@H]1OC(=O)CCCCCCCC` (relative stereo) [Example 8, nonanoic acid 2-nonanoyloxy-trans-cyclohexyl ester], the inhibition at 5 µg/mL under setting [1] is 21%. This compound gave an inhibition at 20 µg/mL under setting [2] of 47%.

`CCCCCCCCCC(=O)O[C@@H]1CCCC[C@H]1OC(=O)CCCCCCCCC` (relative stereo) [Example 9, decanoic acid 2-decanoyloxy-trans-cyclohexyl ester] yielded an inhibition at 5 µg/mL under setting [1] of 19%. The compound further registered an inhibition at 20 µg/mL under setting [2] of 39%.

On to `CCCCCCCCCCCC(=O)O[C@@H]1CCCC[C@H]1OC(=O)CCCCCCCCCCC` (relative stereo) [Example 10, lauric acid 2-lauroyloxy-trans-cyclohexyl ester], for which 5 µg/mL produced 9% inhibition under setting [1]. Under setting [2], this compound yielded an inhibition at 20 µg/mL of 15%.

In turn, `CC(C)=CC(=O)O[C@@H]1CCC[C@H]1OC(=O)C=C(C)C` (relative stereo) [Example 12, 3-methyl-2-butenoic acid 2-(3-methyl-2-butenoyloxy)-trans-cyclopentyl ester] came in with an inhibition at 5 µg/mL under setting [1] of 27%. In addition, the inhibition at 20 µg/mL under setting [2] stood at 56%.

As to `CCCCCCCC(=O)O[C@@H]1CCC[C@H]1OC(=O)CCCCCCC` (relative stereo) [Example 13, octanoic acid 2-octanoyloxy-trans-cyclopentyl ester], under setting [1], the inhibition at 5 µg/mL was determined as 30%. Under setting [2], this compound gave an inhibition at 20 µg/mL of 54%.

Under setting [1], `CCCCC(CC)C(=O)O[C@@H]1CCC[C@H]1OC(=O)C(CC)CCCC` (relative stereo) [Example 14, 2-ethyl-hexanoic acid 2-(2-ethyl-hexanoyloxy)-trans-cyclopentyl ester] displayed an inhibition at 5 µg/mL of 31%. Moreover, under setting [2], the inhibition at 20 µg/mL amounted to 57%.

On to `C=CCCC(=O)O[C@@H]1CCCC[C@H]1OC(=O)CCC=C` (relative stereo) [Example 15, 4-pentenoic acid 2-(4-pentenoyloxy)-trans-cyclohexyl ester], for which the inhibition at 5 µg/mL under setting [1] stood at 39%. Moreover, 20 µg/mL produced 72% inhibition under setting [2].

Regarding `CC(C)=CC(=O)O[C@H]1CCCC[C@H]1OC(=O)C=C(C)C` [Example 11, 3-methyl-2-butenoic acid 2-(3-methyl-2-butenoyloxy)-cis-cyclohexyl ester], under setting [1], the inhibition at 5 µg/mL is 31%. This compound also came in with an inhibition at 20 µg/mL under setting [2] of 54%.

`CC(C)=CC(=O)Oc1ccccc1OC(=O)C=C(C)C` [Example 16, 3-methyl-2-butenoic acid 2-(3-methyl-2-butenoyloxy)-phenyl ester] yielded an inhibition at 5 µg/mL under setting [1] of 15%. The compound further returned an inhibition at 20 µg/mL under setting [2] of 27%.

The compound `CCCCCCCC(=O)Oc1ccccc1OC(=O)CCCCCCC` [Example 17, octanoic acid 2-octanoyloxy-phenyl ester] came in with an inhibition at 5 µg/mL under setting [1] of 9%. Also, the inhibition at 20 µg/mL under setting [2] came to 18%.

Regarding `CC(C)=CC(=O)Oc1cc2ccccc2cc1OC(=O)C=C(C)C` [Example 18, 3-methyl-2-butenoic acid 3-(3-methyl-2-butenoyloxy)-naphthalen-2-yl ester], under setting [1], the inhibition at 5 µg/mL came out at 47%. Under setting [2], testing at 20 µg/mL gave an inhibition of 67%.

`CCCCCCCC(=O)Oc1cc2ccccc2cc1OC(=O)CCCCCCC` [Example 19, octanoic acid 3-octanoyloxy-naphthalen-2-yl ester] registered an inhibition at 5 µg/mL under setting [1] of 39%. Further, the inhibition at 20 µg/mL under setting [2] was determined as 61%.

`CCCCC(CC)C(=O)Oc1cc2ccccc2cc1OC(=O)C(CC)CCCC` (stereo not drawn) [Example 20, 2-ethyl-hexanoic acid 3-(2-ethyl-hexanoyloxy)-naphthalen-2-yl ester] registered an inhibition at 5 µg/mL under setting [1] of 29%. Under setting [2], this compound displayed an inhibition at 20 µg/mL of 55%.

Regarding `CCCCCCCC(=O)Oc1cccnc1OC(=O)CCCCCCC` [Example 21, octanoic acid 3-octanoyloxy-pyridin-2-yl ester], the inhibition at 5 µg/mL under setting [1] turned out to be 48%. At 20 µg/mL the inhibition under setting [2] was 81%.

Consider `CC(C)=CC(=O)OC1COCC1OC(=O)C=C(C)C` (stereo not drawn) [Example 22, 3-methyl-2-butenoic acid 4-(3-methyl-2-butenoyloxy)-tetrahydrofuran-3-yl ester], for which 5 µg/mL produced 27% inhibition under setting [1]. The compound further registered an inhibition at 20 µg/mL under setting [2] of 49%.

As for `CCCCCCCC(=O)OC1CCCC(OC(=O)CCCCCCC)C1OC(=O)CCCCCCC` (stereo not drawn) [Example 24, octanoic acid 2,3-bis-octanoyloxy-cyclohexyl ester], 5 µg/mL produced 39% inhibition under setting [1]. This compound also came in with an inhibition at 20 µg/mL under setting [2] of 69%.

Consider `CCCC(=O)OC1C(OC(=O)CCC)C(OC(=O)CCC)C(OC(=O)CCC)C(OC(=O)CCC)C1OC(=O)CCC` (stereo not drawn) [Example 25, myo-inositol hexa-O-butanoate], for which the “Melanin synthesis inhibition (%)” value is given as 27% under setting [3] and 59% under setting [4].

Consider `CC(C)=CC(=O)OC1OC[C@@H](OC(=O)C=C(C)C)[C@@H](OC(=O)C=C(C)C)[C@@H]1OC(=O)C=C(C)C` (stereo partly drawn) [Example 26], for which the “Melanin synthesis inhibition (%)” value runs as follows: under setting [3], 31%; under setting [4], 61%.

As to `CCCC(=O)OC[C@H]1O[C@H](OC)[C@H](OC(=O)CCC)[C@@H](OC(=O)CCC)[C@@H]1OC(=O)CCC` [Example 27, methyl-alpha-D-glucose tetra-O-butanoate], the “Melanin synthesis inhibition (%)” value reads like this: under setting [3], 29%; under setting [4], 49%.

`CC(C)CCOC1CCCCC1OCCC(C)C` (stereo not drawn) [Example 28, 1,2-bis-(3-methyl-buthoxy)-cyclohexane]: the “Melanin synthesis inhibition (%)” value is, setting by setting: under setting [3], 25%; under setting [4], 49%.

Turning to `CCCCCOC1CCCCC1OCCCCC` (stereo not drawn) [Example 29, 1,2-bis-pentyloxy-cyclohexane], the inhibition at 5 µg/mL under setting [1] was 22%. The inhibition at 20 µg/mL under setting [2] came to 43%.

`CCCCCCOC1CCCCC1OCCCCCC` (stereo not drawn) [Example 30, 1,2-bis-hexyloxy-cyclohexane] gave an inhibition at 5 µg/mL under setting [1] of 18%. At 20 µg/mL the inhibition under setting [2] was 41%.

For the compound `CCCCCCCCOC1CCCCC1OCCCCCCCC` (stereo not drawn) [Example 31, 1,2-bis-octyloxy-cyclohexane], the inhibition at 5 µg/mL under setting [1] worked out at 15%. The same compound gave an inhibition at 20 µg/mL under setting [2] of 31%.

For `Oc1ccc(O)cc1` [Hydroquinone, reference compound], the inhibition at 1 µg/mL (Mus musculus, B16, 72 h, concentration 1 ug/ml, B-16 cells cultured 3 days, vs control group) was determined as 45%. For the same compound, under setting [3], the “Melanin synthesis inhibition (%)” value is on record as “Cell death”. Besides, under setting [5], the cytotoxicity entry is “high levels of cytotoxicity” and the “inhibitory activity of melanin synthesis” value is “potent inhibitory activity at low concentration”.

Take “butyric acid 3-methyl-2-butenoic acid 2,3-bis-(3-methyl-2-butenoyloxy)-phenyl ester [Example 23]”: the “Melanin synthesis inhibition (%)” value under setting [3] turned out to be 48% and the “Melanin synthesis inhibition (%)” value under setting [4] is listed as 75%.

The values above are taken from US8420853B2, “Derivatives of cyclic compound and the use thereof” (Wonkisopharm Co., Ltd, priority 2006, dated 2013).
